# Assay results from US9539367B2, “Gallium inhibits biofilm formation” (priority 2003, dated 2017).
# Read-outs that look alike come from different tables or passages of the source.
# What was measured:
# P. aeruginosa [1] = assay: P. aeruginosa growth in 1:100 strength TSB medium (A600); conditions: batch culture
# Experimental: Effect of gallium on the growth of P. aeruginosa. Bacteria were inoculated in 1:100 strength TSB medium with the indicated concentrations of gallium and grown at 37° C. with shaking. Growth was monitored as the change in A600 over 15 h.
# [2] = patients with cancer-related hypercalcemia; cited from earlier work
# P. aeruginosa biofilm = assay: Biofilm formation of GFP-labeled P. aeruginosa in continuous culture flow cells; assay type: cell-based
# [3] = tested on: intraphagosomal M. tuberculosis; assay: 59Fe acquisition by M. tuberculosis within macrophage phagosomes; assay type: cell-based; conditions: 10 μM Ga(NO3)3; 59Fe transferrin
# Experimental: FIG. 6. Ga-transferrin inhibits Fe acquisition by M. tuberculosis within macrophage phagosomes in a concentration-dependent manner. ^59Fe transferrin (10 μM) was added to M. tuberculosis-containing MDMs in the absence (control) or the presence of the indicated concentrations of Ga-transferrin for 24 h MDMs were lysed, and the lysates were filtered through a 0.22-μm (pore-size) filter. M. tuberculosis-associated radioactivity (expressed in cpm) on the filter was determined. Shown are the cpm values as a function of the Ga concentration added from a representative experiment.
# Fe-TF is the major form of extracellular Fe, and transport of exogenously added TF to the M. tuberculosis-containing phagosome of human macrophages (Clemens et al., 1996) has been observed. It was therefore hypothesized that gallium competes with Fe uptake by bacteria dividing within the phagosome. […] This was not due to differences in total MDM ^59Fe.
# In two recent preliminary experiments, MDM monolayers were preloaded with either ^59Fe or ^67Ga or both (pulse/chase, 24 h each). Erdman M. tuberculosis was then added. After 48 h, bacteria isolated from the phagosome were assessed for associated iron or gallium. Each metal could be found specifically associated with the bacteria.
# [4] = tested on: M. tuberculosis within human monocyte-derived macrophages (MDM); assay type: cell-based
# IdeR = IdeR (Mycobacterium tuberculosis, UniProt P9WMH1); assay: IdeR DNA binding, gel mobility shift assay with HisE promoter region; set-up: species or system M. tuberculosis; conditions: for IdeR binding to HisE promoter DNA fragment: 200 μM
# Text: The iron regulatory element, IdeR, regulates the production of catalase, SOD, and siderophores in mycobacteria (Dussurget et al., 1996) in a manner analogous to P. aeruginosa Fur. In order for DNA binding to occur, IdeR must be complexed with a divalent metal such as Fe^2+ or Ni^2+. The effect of Ga(NO3)3 on the binding (gel mobility shift assay) of IdeR was examined using the HisE promoter region from M. tuberculosis that contains a high affinity IdeR binding site (Schmitt et al., 1995). […] A similar lack of binding of Ga^3+ to P. aeruginosa Fur is expected based on these findings.
# Erdman M. tuberculosis [5] = assay: 59Fe acquisition by M. tuberculosis in 7H9 medium; assay type: cell-based; conditions: 500 nM 59Fe-citrate, 6 h
# Experimental: FIGS. 4A-4B. […] Erdman M. tuberculosis (2×10^7 ml) was incubated for 6 h in 7H9 medium (without added Fe and OADC) with 500 nM ^59Fe-citrate (FIG. 4A) or ^67Ga-citrate (FIG. 4B) in the absence or presence of the indicated concentrations of cold competing metal. The bacteria were then washed repeatedly, and bacterium-associated ^67Ga or ^59Fe levels were determined. Results are shown as the amount of metal acquired as a function of increasing concentrations of the cold competing metal. Experimental groups were performed in triplicate, and the data shown represent three independent experiments (mean±SEM).
# established biofilms = assay: Killing of established three-day-old biofilms, viability by propidium iodide; assay type: cell-based, P. aeruginosa; conditions: 10 μM, 100 μM, 1000 μM; 12, 24, 48, 72 hours
# Experimental: FIGS. 10A-10D. Gallium kills established biofilms. Three-day-old biofilms were exposed to gallium in concentrations of 10 μM, 100 μM, and 1000 μM. Biofilm viability was assessed with propidium iodide, and observations were recorded at 12 hours (FIG. 10A), 24 hours (FIG. 10B), 48 hours (FIG. 10C), and 72 hours (FIG. 10D).
# Three-day-old biofilms were exposed to gallium in concentrations of 10 μM, 100 μM, and 1000 μM. The biofilm viability was assessed with propidium iodide, and observations were recorded at 12 hours (FIG. 10A), 24 hours (FIG. 10B), 48 hours (FIG. 10C), and 72 hours (FIG. 10D).
# [6] = human, in vivo; read-out: peak levels achieved clinically; cited from earlier work
# [7] = tested on: P. aeruginosa strain PA01; assay: P. aeruginosa growth in iron-supplemented succinate media (A600); assay type: cell-based; conditions: 100 nM gallium
# Experimental: FIG. 7. P. aeruginosa was inoculated to an OD (A600) of about 0.010 into succinate media alone or with FeCl3 supplementation +/− the Ga chelates.
# P. aeruginosa growth is dependent on the addition of exogenous Fe (FIG. 7). […] When gallium, either in the form of Ga(NO3)3 or Ga-TF, was added to iron-supplemented succinate media at concentrations ≧1 μM, a gallium concentration-dependent inhibition of P. aeruginosa growth was observed (FIG. 7). […] Similar results were observed under different conditions (see below).
# M. tuberculosis RR [8] = biological target: T1, M. tuberculosis RR (Mycobacterium tuberculosis, UniProt P9WH71); assay: Radiolabeled CDP reduction assay for ribonucleotide reductase activity; assay type: biochemical; conditions: n=2; read-out: concentration that inhibited RR activity by 50%
# M. tuberculosis RR [9] = biological target: T1, M. tuberculosis RR; conditions: Yang et al., 1997; read-out: IC50, RR inhibition; cited from earlier work
# P. aeruginosa [10] = conditions: cited from earlier work
# Erdman M. tuberculosis [11] = assay type: cell-based; conditions: liquid media
# IdeR, sequence (P9WMH1 whole entry, the tested form may be a part): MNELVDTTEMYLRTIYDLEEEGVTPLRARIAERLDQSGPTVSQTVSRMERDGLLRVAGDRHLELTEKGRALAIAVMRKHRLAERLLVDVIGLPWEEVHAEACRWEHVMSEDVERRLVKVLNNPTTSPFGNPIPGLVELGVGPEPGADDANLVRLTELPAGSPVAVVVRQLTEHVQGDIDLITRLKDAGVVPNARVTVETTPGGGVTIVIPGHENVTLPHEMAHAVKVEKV
# T1 sequence (P9WH71 whole entry): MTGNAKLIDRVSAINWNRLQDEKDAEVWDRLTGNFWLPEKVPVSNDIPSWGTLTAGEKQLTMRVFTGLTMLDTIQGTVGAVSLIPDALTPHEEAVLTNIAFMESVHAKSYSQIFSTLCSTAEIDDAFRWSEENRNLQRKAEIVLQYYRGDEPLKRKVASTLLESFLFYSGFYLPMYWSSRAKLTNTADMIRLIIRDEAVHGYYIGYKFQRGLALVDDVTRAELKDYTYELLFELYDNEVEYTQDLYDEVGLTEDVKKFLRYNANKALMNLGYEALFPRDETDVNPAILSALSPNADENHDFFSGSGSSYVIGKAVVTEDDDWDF
compound,measurement,setting,value
"O=[N+]([O-])[O-].O=[N+]([O-])[O-].O=[N+]([O-])[O-].[Ga+3] [Ga(NO3)3, gallium nitrate]",concentration above which growth rate of P. aeruginosa significantly decreased,P. aeruginosa [1],exceeded 1 μM
same,tolerability,[2],well tolerated
same,effect on P. aeruginosa biofilm formation,"P. aeruginosa biofilm; 0.3 μM Ga(NO3)3 (sub-inhibitory), up to 4 days",subsequent steps in biofilm formation were inhibited
same,59Fe acquisition by intraphagosomal M. tuberculosis,[3],markedly decreased
"O=[N+]([O-])[O-].[Na+] [NaNO3, reference compound]",effect on mycobacterial growth within macrophages,[4]; nitrate control,no effect
"[Ni+2] [Ni^2+, reference compound]",IdeR binding to HisE promoter DNA fragment,IdeR,binding was observed
"CC(C)(O/N=C(\C(=O)N[C@@H]1C(=O)N2C(C(=O)[O-])=C(C[n+]3ccccc3)CS[C@H]12)c1csc(N)n1)C(=O)O [ceftazidime, reference compound]",effect on P. aeruginosa biofilm development,"P. aeruginosa biofilm; sub-inhibitory concentration, 0.25 μg/ml",did not inhibit biofilm development
[Ga+3] [gallium],competition for M. tuberculosis acquisition of 59Fe,Erdman M. tuberculosis [5],highly effective in competing
same,killing of established biofilms,established biofilms,kills established biofilms in a time and concentration dependent manner
same,Cmax,[6],140 to 700 µM
same,effect on P. aeruginosa growth,[7],did not inhibit growth
same,bactericidal activity for M. tuberculosis,[4]; extracellularly and even more so intracellularly in macrophages,bactericidal
same,IC50,M. tuberculosis RR [8],450 µM
same,interference with Ni2+ or Fe2+ activation of IdeR binding,IdeR,did not interfere
same,IdeR binding to HisE promoter DNA fragment,IdeR,did not lead to IdeR binding
NC(=O)NO [hydroxyurea],IC50,M. tuberculosis RR [9],3000 to 5000 µM
NC[C@H]1O[C@H](O[C@H]2[C@H](O)[C@@H](O[C@H]3O[C@H](CO)[C@@H](O)[C@H](N)[C@H]3O)[C@H](N)C[C@@H]2N)[C@H](N)C[C@@H]1O [tobramycin],reduction of biofilm cell counts,"P. aeruginosa [10]; levels far in excess of the MIC, biofilm cells",approximately 2 logs
same,decrease in planktonic cells,"P. aeruginosa [10]; same dosage, planktonic cells",> 8 log
Ga-TF: gallium chelated by serum transferrin (TF),inhibiting mycobacterial growth compared with Ga(NO3)3,Erdman M. tuberculosis [11],as effective as Ga(NO3)3
same,inhibiting mycobacterial growth compared with Ga(NO3)3,[4]; within human macrophages,as effective as Ga(NO3)3
